From patent publication US20140221340A1 (KYOWA HAKKO KIRIN CO., LTD., priority 2011, published 2014)

target: T1, human CCR10 (Homo sapiens, UniProt P46092); test: Calcium assay of human CCR10 (inhibition of CTACK-induced increase in intracellular calcium ion concentration in hCCR10G16 cells); format: cell-based; conditions: test compound 100 nmol/L; human recombinant CTACK; hCCR10G16 cells (KJMGER8/Namalwa-derived, Gα16 co-expressed); FLIPR or FDSS
T1 construct: expressed in transfected cells; host or cells: KJMGER8 cell (cell line derived from Namalwa cell); expression induced with 10 nmol/L β-estradiol
T1 sequence (P46092 1-362): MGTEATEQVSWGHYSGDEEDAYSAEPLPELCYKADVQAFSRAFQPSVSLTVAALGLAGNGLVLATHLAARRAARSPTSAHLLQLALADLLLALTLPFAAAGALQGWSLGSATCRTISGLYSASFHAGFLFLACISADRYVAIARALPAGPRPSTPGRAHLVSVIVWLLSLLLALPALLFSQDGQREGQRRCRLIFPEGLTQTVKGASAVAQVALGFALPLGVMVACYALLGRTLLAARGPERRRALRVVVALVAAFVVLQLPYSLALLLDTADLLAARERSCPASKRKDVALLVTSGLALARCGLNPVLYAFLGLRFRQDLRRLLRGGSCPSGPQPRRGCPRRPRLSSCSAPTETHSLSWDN
Outline: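 KJMGER8-derived hCCR10G16 cells (human CCR10 plus Gα16, expression induced 24 h with 10 nmol/L β-estradiol) were dye-loaded and preincubated with compound for 30 min at 37 °C, then stimulated with CTACK (300 nmol/L stock). Calcium flux over ~5 min (max−min fluorescence) gave percent inhibition versus DMSO control.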

Structure (SMILES) | Inhibitory rate (%) for an increase in calcium ion concentration
Cc1cc(F)ccc1Nc1c(C(=O)N2CCC(c3ccccc3)CC2)cnc2c(S(=O)(=O)N=CN(C)C)cnn12 [a-73, N-[7-(4-Fluoro-2-methylphenylamino)-6-(4-phenylpiperidine-1-carbonyl)pyrazolo[1,5-a]pyrimidin-3-ylsulfonyl]-N,N-dimethylformimidamide] | 68.9%

same assay, conditions: test compound 100 nmol/L; human recombinant CTACK; hCCR10G16 cells (KJMGER8/Namalwa-derived, Gα16 co-expressed); FLIPR or FDSS; read-out: Inhibitory rate (%) for an increase in calcium ion concentration

Structure (SMILES) | inhibition at 0.1 µM
Cc1ccc(Cl)c(Nc2c(C(=O)N3CCC4(CC3)OCc3ccccc34)cnc3c(S(=O)(=O)NC(=O)C4(C)COC4)cnn23)c1 [a-58, N-{7-(2-Chloro-5-methylphenylamino)-6-[3H-spiro(isobenzofuran-1,4′-piperidine)-1′-carbonyl]pyrazolo[1,5-a]pyrimidin-3-ylsulfonyl}-3-methyloxetane-3-carboxamide] | > 100%
CCC(=O)NS(=O)(=O)c1cnn2c(Nc3cc(C)ccc3Cl)c(C(=O)N3CC4(C3)CN(c3ccc(F)cc3)C4)cnc12 [a-60, N-{7-(2-Chloro-5-methylphenylamino)-6-[6-(4-fluorophenyl)-2,6-diazaspiro[3,3]heptane-2-carbonyl]pyrazolo[1,5-a]pyrimidin-3-ylsulfonyl}propionamide] | 90.2%
CCNC(=O)NS(=O)(=O)c1cnn2c(Nc3cc(C)ccc3Cl)c(C(=O)N3CC4(C3)CN(c3ccc(F)cc3)C4)cnc12 [a-61, 7-(2-Chloro-5-methylphenylamino)-N-(ethylcarbamoyl)-6-[6-(4-fluorophenyl)-2,6-diazaspiro[3,3]heptane-2-carbonyl]pyrazolo[1,5-a]pyrimidine-3-sulfonamide] | 24.3%
CCN(CC)S(=O)(=O)c1cnn2c(Nc3ccc(F)cc3C)c(C(=O)N3CCC(c4ccccc4)CC3)cnc12 [a-62, N,N-Diethyl-7-(4-fluoro-2-methylphenylamino)-6-(4-phenylpiperidine-1-carbonyl)pyrazolo[1,5-a]pyrimidine-3-sulfonamide] | > 100%
CNCC(=O)NS(=O)(=O)c1cnn2c(Nc3ccc(F)cc3C)c(C(=O)N3CCC(c4ccccc4)CC3)cnc12 [a-63, N-[7-(4-Fluoro-2-methylphenylamino)-6-(4-phenylpiperidine-1-carbonyl)pyrazolo[1,5-a]pyrimidin-3-ylsulfonyl]-2-methylaminoacetamide] | 58.8%
COCC(=O)NS(=O)(=O)c1cnn2c(Nc3ccc(F)cc3C)c(C(=O)N3CCC(c4ccccc4)CC3)cnc12 [a-64, N-[7-(4-Fluoro-2-methylphenylamino)-6-(4-phenylpiperidine-1-carbonyl)pyrazolo[1,5-a]pyrimidin-3-ylsulfonyl]-2-methoxyacetamide] | 94.2%
Cc1cc(F)ccc1Nc1c(C(=O)N2CCC(c3ccccc3)CC2)cnc2c(S(=O)(=O)NC(=O)CO)cnn12 [a-65, N-[7-(4-Fluoro-2-methylphenylamino)-6-(4-phenylpiperidine-1-carbonyl)pyrazolo[1,5-a]pyrimidin-3-ylsulfonyl]-2-hydroxyacetamide] | > 100%
Cc1cc(F)ccc1Nc1c(C(=O)N2CCC(c3ccccc3)CC2)cnc2c(S(=O)(=O)NC(=O)Nc3ccccc3)cnn12 [a-67, 7-(4-Fluoro-2-methylphenylamino)-N-phenylcarbamoyl-6-(4-phenylpiperidine-1-carbonyl)pyrazolo[1,5-a]pyrimidine-3-sulfonamide] | 63.7%
Cc1cc(F)ccc1Nc1c(C(=O)N2CCC(c3ccccc3)CC2)cnc2c(S(=O)(=O)NC(=O)N3CCOCC3)cnn12 [a-68, N-[7-(4-Fluoro-2-methylphenylamino)-6-(4-phenylpiperidine-1-carbonyl)pyrazolo[1,5-a]pyrimidin-3-ylsulfonyl]morpholine-4-carboxamide] | 85.9%
CCNC(=S)NS(=O)(=O)c1cnn2c(Nc3ccc(F)cc3C)c(C(=O)N3CCC(c4ccccc4)CC3)cnc12 [a-69, N-Ethylcarbamothioyl-7-(4-fluoro-2-methylphenylamino)-6-(4-phenylpiperidine-1-carbonyl)pyrazolo[1,5-a]pyrimidine-3-sulfonamide] | 81.8%
Cc1cc(F)ccc1Nc1c(C(=O)N2CCC(c3ccccc3)CC2)cnc2c(S(=O)(=O)NC(=O)C(F)(F)F)cnn12 [a-70, 2,2,2-Trifluoro-N-[7-(4-fluoro-2-methylphenylamino)-6-(4-phenylpiperidine-1-carbonyl)pyrazolo[1,5-a]pyrimidin-3-ylsulfonyl]acetamide] | > 100%
Cc1cc(F)ccc1Nc1c(C(=O)N2CCC(c3ccccc3)CC2)cnc2c(S(=O)(=O)NS(C)(=O)=O)cnn12 [a-71, 7-(4-Fluoro-2-methylphenylamino)-N-methylsulfonyl-6-(4-phenylpiperidine-1-carbonyl)pyrazolo[1,5-a]pyrimidine-3-sulfonamide] | 88.8%
COC(=O)NS(=O)(=O)c1cnn2c(Nc3ccc(F)cc3C)c(C(=O)N3CCC(c4ccccc4)CC3)cnc12 [a-72, Methyl 7-(4-fluoro-2-methylphenylamino)-6-(4-phenylpiperidine-1-carbonyl)pyrazolo[1,5-a]pyrimidin-3-ylsulfonylcarbamate] | 90.7%
COC(=O)NS(=O)(=O)c1cnn2c(Nc3cc(C)ccc3C)c(C(=O)N3CCC(c4ccccc4)CC3)cnc12 [a-74, Methyl 7-(2,5-dimethylphenylamino)-6-(4-phenylpiperidine-1-carbonyl)pyrazolo[1,5-a]pyrimidin-3-ylsulfonylcarbamate] | > 100%
O=C(NS(=O)(=O)c1cnn2c(NCc3ccccc3)c(C(=O)N3CCC(c4ccccc4)CC3)cnc12)C1CC1 [a-75, N-[7-Benzylamino-6-(4-phenylpiperidine-1-carbonyl)pyrazolo[1,5-a]pyrimidin-3-ylsulfonyl]cyclopropanecarboxamide] | 89.4%
CCNC(=O)NS(=O)(=O)c1cnn2c(NCc3ccccc3)c(C(=O)N3CCC(c4ccccc4)CC3)cnc12 [a-76, 7-Benzylamino-N-ethylcarbamoyl-6-(4-phenylpiperidine-1-carbonyl)pyrazolo[1,5-a]pyrimidine-3-sulfonamide] | 95.1%
Cc1ccc(Cl)c(Nc2c(C(=O)N3CCC(c4ccc(F)cc4)CC3)cnc3c(S(=O)(=O)NC(N)=O)cnn23)c1 [a-77, N-Carbamoyl-7-(2-chloro-5-methylphenylamino)-6-[4-(4-fluorophenyl)piperidine-1-carbonyl]pyrazolo[1,5-a]pyrimidine-3-sulfonamide] | > 100%
O=C(c1cnc2c(S(=O)(=O)Nc3nncs3)cnn2c1Nc1cc(Cl)ccc1Cl)N1CCC(c2ccc(F)cc2)CC1 [a-78, 7-(2,5-Dichlorophenylamino)-6-[4-(4-fluorophenyl)piperidine-1-carbonyl]-N-(1,3,4-thiadiazol-2-yl)pyrazolo[1,5-a]pyrimidine-3-sulfonamide] | > 100%
O=C(c1cnc2c(S(=O)(=O)Nc3cccnn3)cnn2c1Nc1cc(Cl)ccc1Cl)N1CCC(c2ccc(F)cc2)CC1 [a-79, 7-(2,5-Dichlorophenylamino)-6-[4-(4-fluorophenyl)piperidine-1-carbonyl]-N-(pyridazin-3-yl)pyrazolo[1,5-a]pyrimidine-3-sulfonamide] | > 100%
O=C(c1cnc2c(S(=O)(=O)Nc3ncccn3)cnn2c1Nc1cc(Cl)ccc1Cl)N1CCC(c2ccc(F)cc2)CC1 [a-80, 7-(2,5-Dichlorophenylamino)-6-[4-(4-fluorophenyl)piperidine-1-carbonyl]-N-(pyrimidin-2-yl)pyrazolo[1,5-a]pyrimidine-3-sulfonamide] | > 100%
Cc1ccc(Cl)c(Nc2c(C(=O)N3CCC4(CC3)OCc3ccccc34)cnc3c(S(=O)(=O)NC(=O)NC4CCOCC4)cnn23)c1 [a-81, 7-(2-Chloro-5-methylphenylamino)-6-[3H-spiro(isobenzofuran-1,4′-piperidine)-1′-carbonyl]-N-(tetrahydro-2H-pyran-4-ylcarbamoyl)pyrazolo[1,5-a]pyrimidine-3-sulfonamide] | 62.3%
Cc1ccc(Cl)c(Nc2c(C(=O)N3CCC4(CC3)OCc3ccccc34)cnc3c(S(=O)(=O)NC(=O)NCC(F)(F)F)cnn23)c1 [a-82, 7-(2-Chloro-5-methylphenylamino)-6-[3H-spiro(isobenzofuran-1,4′-piperidine)-1′-carbonyl]-N-(2,2,2-trifluoroethylcarbamoyl)pyrazolo[1,5-a]pyrimidine-3-sulfonamide] | 75.3%
